In patent publication US9045498B2, “Hexahydropyrano[3,4-d][1,3]thiazin-2-amine compounds” (Pfizer Inc., priority 2012, dated 2015):

Legend:
BACE2 enzyme = BACE2 enzyme (Homo sapiens (Human), UniProt Q9Y5Z0); test: BACE2 Cell-free Assay (fluorescence polarization); assay type: biochemical; details: pH 4.5, 3 hours at 37° C.; number of determinations per footnote a, b, d
Procedure: This assay measures the inhibition of the BACE2 enzyme as it cleaves a non-native peptide. A synthetic substrate that can be cleaved by BACE2 having N-terminal biotin and made fluorescent by the covalent attachment of Oregon Green at the Cys residue is used to assay BACE2 activity in the presence or absence of the inhibitory compounds. The substrate is Biotin-[…]-C(Oregon green)-KK-OH. The BACE2 enzyme is available from Enzo Life Sciences (Cat # BML-SE550). Compounds are incubated in a ½ log dose response curve from a top concentration of 100 μM with BACE2 enzyme and the biotinylated fluorescent peptide in 384-well black plates (Thermo Scientific #4318). BACE2 is at a final concentration of 2.5 nM with a final concentration of peptide substrate of 150 nM in a reaction volume of 30 μL assay buffer (100 mM sodium acetate, pH 4.5 (brought to pH with acetic acid), and 0.001% Tween-20). Plates are covered and incubated for 3 hours at 37° C. The reaction is stopped with the addition of 30 μL of 1.5 μM Streptavidin (Pierce, #21125). After a 10 minute incubation at room temperature, plates are read on a Perkin Elmer EnVision for fluorescence polarization (Ex485 nm/Em530 nm). The activity of the beta-secretase enzyme is detected by changes in the fluorescence polarization that occur when the substrate is cleaved by the enzyme.

[1] = tested on: sAPPβ levels in H4 human neuroglioma cells over-expressing the wild-type human APP695; test: Whole Cell Assay (In Vitro sAPPb Assay); assay type: cell-based; details: 18 hours treatment, geometric mean of 2-3 determinations (4-7 where marked d)
Procedure: Whole Cell Assay (In Vitro sAPPb Assay):
H4 human neuroglioma cells over-expressing the wild-type human APP695 are treated for 18 hours with compound in cell growth media having a final concentration 1% DMSO. sAPPβ levels are measured using either TMB-ELISA or Pierce SuperSignal ELISA Pico Chemiluminescent Substrate (Pierce 37069) with capture APP N-terminal antibody (Affinity BioReagents, OMA1-03132), wild-type sAPPβ specific reporter p192 (Elan), and tertiary anti rabbit-HRP (GE Healthcare).

BACE1 enzyme = BACE1 enzyme (Homo sapiens (Human), UniProt P56817); test: BACE1 Cell-Free Assay (fluorescence polarization); assay type: biochemical; details: geometric mean of 2-3 determinations; pH 4.5, 3 hours at 37° C.
BACE1 enzyme, sequence (P56817 46-457): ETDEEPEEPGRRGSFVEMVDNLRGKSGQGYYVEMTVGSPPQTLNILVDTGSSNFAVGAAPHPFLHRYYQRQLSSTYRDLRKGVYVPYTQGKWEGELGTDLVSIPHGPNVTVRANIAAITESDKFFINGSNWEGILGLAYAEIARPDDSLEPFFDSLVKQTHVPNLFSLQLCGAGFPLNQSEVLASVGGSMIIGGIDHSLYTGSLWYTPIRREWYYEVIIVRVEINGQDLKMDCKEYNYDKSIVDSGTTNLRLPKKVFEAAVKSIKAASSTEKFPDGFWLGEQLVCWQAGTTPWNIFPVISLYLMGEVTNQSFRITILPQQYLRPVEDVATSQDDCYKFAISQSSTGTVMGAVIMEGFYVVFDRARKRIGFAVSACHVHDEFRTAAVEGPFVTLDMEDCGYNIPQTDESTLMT
Description: This assay measures the inhibition of the beta-secretase enzyme as it cleaves a non-native peptide.
A synthetic APP substrate that can be cleaved by beta-secretase having N-terminal biotin and made fluorescent by the covalent attachment of Oregon Green at the Cys residue is used to assay beta-secretase activity in the presence or absence of the inhibitory compounds. […] The BACE1 enzyme is affinity purified material from conditioned media of CHO-K1 cells that have been transfected with a soluble BACE construct (BACE1deltaTM96His). Compounds are incubated in a ½ log dose response curve from a top concentration of 100 μM with BACE1 enzyme and the biotinylated fluorescent peptide in 384-well black plates (Thermo Scientific #4318). BACE1 is at a final concentration of 0.1 nM with a final concentration of peptide substrate of 150 nM in a reaction volume of 30 μL assay buffer (100 mM sodium acetate, pH 4.5 (brought to pH with acetic acid), and 0.001% Tween-20). Plates are covered and incubated for 3 hours at 37° C. The reaction is stopped with the addition of 30 μL of 1.5 μM Streptavidin (Pierce, #21125). After a 10 minute incubation at room temperature, plates are read on a PerkinElmer EnVision for fluorescence polarization (Ex485 nm/Em530 nm). The activity of the beta-secretase enzyme is detected by changes in the fluorescence polarization that occur when the substrate is cleaved by the enzyme.

BACE2 enzyme, sequence (Q9Y5Z0 63-518): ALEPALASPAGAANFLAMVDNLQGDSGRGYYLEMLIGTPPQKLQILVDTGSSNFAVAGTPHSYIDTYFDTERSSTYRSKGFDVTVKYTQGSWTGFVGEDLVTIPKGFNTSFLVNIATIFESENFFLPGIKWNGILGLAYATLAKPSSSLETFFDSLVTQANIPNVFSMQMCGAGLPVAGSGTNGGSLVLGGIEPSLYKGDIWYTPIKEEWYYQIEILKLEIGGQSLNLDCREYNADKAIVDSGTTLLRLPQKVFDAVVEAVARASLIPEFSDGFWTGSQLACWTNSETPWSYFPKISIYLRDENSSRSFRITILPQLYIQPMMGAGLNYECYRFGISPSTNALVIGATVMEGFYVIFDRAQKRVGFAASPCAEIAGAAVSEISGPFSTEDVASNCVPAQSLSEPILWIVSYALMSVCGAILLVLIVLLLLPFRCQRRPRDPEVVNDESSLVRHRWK

Compound | IC50 (BACE2 enzyme) | IC50 [1] | IC50 (BACE1 enzyme)
COC[C@@H](C)NCc1ccc(F)c([C@]23CO[C@@H](c4cnn(C)c4)C[C@H]2CSC(N)=N3)c1 (relative stereo) [Example 18, (4aR*,6R*,8aS*)-8a-[2-Fluoro-5-({[(2R)-1-methoxypropan-2-yl]amino}methyl)phenyl]-6-(1-methyl-1H-pyrazol-4-yl)-4,4a,5,6,8,8a-hexahydropyrano[3,4-d][1,3]thiazin-2-amine] | 20 nM | 0.545 nM | 36 nM
Cn1cc([C@H]2C[C@H]3CSC(N)=N[C@@]3(c3cc(CNCC(F)(F)F)ccc3F)CO2)cn1 (relative stereo) [Example 16, rel-(4aR,6R,8aS)-8a-(2-Fluoro-5-{[(2,2,2-trifluoroethyl)amino]methyl}phenyl)-6-(1-methyl-1H-pyrazol-4-yl)-4,4a,5,6,8,8a-hexahydropyrano[3,4-d][1,3]thiazin-2-amine] | 108 nM | 1.88 nM | 19 nM
NC1=N[C@@]2(c3cc(CNCC(F)(F)F)c(F)cc3F)CO[C@@H](CF)C[C@H]2CS1 [Example 8, (4aR,6R,8aS)-8a-(2,4-Difluoro-5-{[(2,2,2-trifluoroethyl)amino]methyl}phenyl)-6-(fluoromethyl)-4,4a,5,6,8,8a-hexahydropyrano[3,4-d][1,3]thiazin-2-amine] | – | 5.9 nM | –
N#Cc1cc([C@]23CO[C@@H](COCc4ccccc4)C[C@H]2CSC(N)=N3)c(F)cc1F [Example 2, 5-[(4aR,6R,8aS)-2-Amino-6-[(benzyloxy)methyl]-4,4a,5,6-tetrahydropyrano[3,4-d][1,3]thiazin-8a(8H)-yl]-2,4-difluorobenzonitrile] | – | 74 nM | 445 nM
Cc1cc([C@H]2C[C@H]3CSC(N)=N[C@@]3(c3cc(C#N)ccc3F)CO2)on1 [Example 10, 3-[(4aR,6R,8aS)-2-Amino-6-(3-methyl-1,2-oxazol-5-yl)-4,4a,5,6-tetrahydropyrano[3,4-d][1,3]thiazin-8a(8H)-yl]-4-fluorobenzonitrile] | – | 10.9 nM | 64 nM
Cc1cc([C@H]2C[C@H]3[C@@H](C)SC(N)=N[C@@]3(c3cc(C#N)ccc3F)CO2)on1 [Example 17, 3-[(4R,4aR,6R,8aS)-2-Amino-4-methyl-6-(3-methyl-1,2-oxazol-5-yl)-4,4a,5,6-tetrahydropyrano[3,4-d][1,3]thiazin-8a(8H)-yl]-4-fluorobenzonitrile] | – | 11.4 nM | 82 nM
Cc1coc([C@H]2C[C@H]3CSC(N)=N[C@@]3(c3cc(C#N)ccc3F)CO2)n1 [Example 11, 3-[(4aR,6R,8aS)-2-Amino-6-(4-methyl-1,3-oxazol-2-yl)-4,4a,5,6-tetrahydropyrano[3,4-d][1,3]thiazin-8a(8H)-yl]-4-fluorobenzonitrile] | – | 12.1 nM | 107 nM
N#Cc1ccc(F)c([C@]23CO[C@@H](C4CC4)C[C@H]2CSC(N)=N3)c1 [Example 13, 3-[(4aR,6R,8aS)-2-Amino-6-cyclopropyl-4,4a,5,6-tetrahydropyrano[3,4-d][1,3]thiazin-8a(8H)-yl]-4-fluorobenzonitrile] | – | 47.6 nM | 342 nM
C[C@H]1C[C@H]2CSC(N)=N[C@@]2(c2cc(C#N)ccc2Cl)CO1 [Example 6, 3-[(4aR,6S,8aS)-2-Amino-6-methyl-4,4a,5,6-tetrahydropyrano[3,4-d][1,3]thiazin-8a(8H)-yl]-4-chlorobenzonitrile] | – | 195 nM | 2330 nM
N#Cc1cc([C@]23CO[C@@H](CO)C[C@H]2CSC(N)=N3)c(F)cc1F [Example 3, 5-[(4aR,6R,8aS)-2-Amino-6-(hydroxymethyl)-4,4a,5,6-tetrahydropyrano[3,4-d][1,3]thiazin-8a(8H)-yl]-2,4-difluorobenzonitrile] | – | 393 nM | 5550 nM
C[C@H]1C[C@H]2[C@@H](CF)SC(N)=N[C@@]2(c2cc(CNCC(F)(F)F)c(F)cc2F)CO1 [Example 20, (4S,4aR,6S,8aS)-8a-(2,4-Difluoro-5-{[(2,2,2-trifluoroethyl)amino]methyl}phenyl)-4-(fluoromethyl)-6-methyl-4,4a,5,6,8,8a-hexahydropyrano[3,4-d][1,3]thiazin-2-amine] | – | 35.7 nM | 68 nM
C[C@H]1C[C@H]2CSC(N)=N[C@@]2(c2cccc(C#N)c2)CO1 [Example 7, 3-[(4aR,6S,8aS)-2-Amino-6-methyl-4,4a,5,6-tetrahydropyrano[3,4-d][1,3]thiazin-8a(8H)-yl]benzonitrile] | – | 119 nM | 1780 nM
NC1=N[C@@]2(c3cc(CNCC(F)(F)F)ccc3F)CO[C@@H](CF)C[C@H]2CS1 [Example 15, (4aR,6R,8aS)-6-(Fluoromethyl)-8a-(2-fluoro-5-{[(2,2,2-trifluoroethyl)amino]methyl}phenyl)-4,4a,5,6,8,8a-hexahydropyrano[3,4-d][1,3]thiazin-2-amine] | 423 nM | 8.05 nM | 376 nM
C[C@H]1C[C@H]2CSC(N)=N[C@@]2(c2cc(CNCC(F)(F)F)c(F)cc2F)CO1 [Example 9, (4aR,6S,8aS)-8a-(2,4-Difluoro-5-{[(2,2,2-trifluoroethyl)amino]methyl}phenyl)-6-methyl-4,4a,5,6,8,8a-hexahydropyrano[3,4-d][1,3]thiazin-2-amine] | – | 8.94 nM | 76 nM
COC[C@H]1C[C@H]2CSC(N)=N[C@@]2(c2cc(C#N)c(F)cc2F)CO1 [Example 5, 5-[(4aR,6R,8aS)-2-Amino-6-(methoxymethyl)-4,4a,5,6-tetrahydropyrano[3,4-d][1,3]thiazin-8a(8H)-yl]-2,4-difluorobenzonitrile] | – | 46.5 nM | –
C[C@H]1C[C@H]2[C@@H](CF)SC(N)=N[C@@]2(c2cc(CNCC(F)(F)F)ccc2F)CO1 [Example 19, (4S,4aR,6S,8aS)-4-(Fluoromethyl)-8a-(2-fluoro-5-{[(2,2,2-trifluoroethyl)amino]methyl}phenyl)-6-methyl-4,4a,5,6,8,8a-hexahydropyrano[3,4-d][1,3]thiazin-2-amine] | – | 30.4 nM | 150 nM
COc1cc(F)c([C@]23CO[C@@H](COCc4ccccc4)C[C@H]2CSC(N)=N3)cc1C#N [Example 1, 5-[(4aR,6R,8aS)-2-Amino-6-[(benzyloxy)methyl]-4,4a,5,6-tetrahydropyrano[3,4-d][1,3]thiazin-8a(8H)-yl]-4-fluoro-2-methoxybenzonitrile] | – | 53.5 nM | 1220 nM
C[C@H]1C[C@H]2CSC(N)=N[C@@]2(c2cc(C#N)ccc2F)CO1 [Example 14, 3-[(4aR,6S,8aS)-2-Amino-6-methyl-4,4a,5,6-tetrahydropyrano[3,4-d][1,3]thiazin-8a(8H)-yl]-4-fluorobenzonitrile] | – | 49.6 nM | 967 nM
N#Cc1cc([C@]23CO[C@@H](CF)C[C@H]2CSC(N)=N3)c(F)cc1F [Example 4, 5-[(4aR,6R,8aS)-2-Amino-6-(fluoromethyl)-4,4a,5,6-tetrahydropyrano[3,4-d][1,3]thiazin-8a(8H)-yl]-2,4-difluorobenzonitrile] | 2520 nM | 93 nM | –
Cn1cc([C@H]2C[C@H]3CSC(N)=N[C@@]3(c3cc(C#N)ccc3F)CO2)cn1 [Example 12, 3-[(4aR,6R,8aS)-2-Amino-6-(1-methyl-1H-pyrazol-4-yl)-4,4a,5,6-tetrahydropyrano[3,4-d][1,3]thiazin-8a(8H)-yl]-4-fluorobenzonitrile] | – | 6.43 nM | 60 nM
